Consider eight compounds from ChEMBL document CHEMBL4480449, “Conolodinines A-D, Aspidosperma- Aspidosperma Bisindole Alkaloids with Antiproliferative Activity from Tabernaemontana corymbosa” (J Nat Prod, 2019).

In assay [1] the test system is HT-29. Briefly: Cytotoxicity against human HT-29 cells after 72 hrs by MTT assay. In kind it is functional, cell-based. The following applies: Homo sapiens, HT-29, 72 h.
Assay [2] is described as follows: Cytotoxicity against human KB/S cells after 72 hrs by MTT assay. The assay is classed as functional, cell-based.
Assay [3] concerns KB/VJ300. Briefly: Cytotoxicity against human KB/VJ300 cells after 72 hrs by MTT assay. In kind it is functional, cell-based. The note with it: Homo sapiens, KB/VJ300, 72 h.
The test system of assay [4] is HCT-116. Briefly: Cytotoxicity against human HCT116 cells after 72 hrs by MTT assay. In kind it is functional, cell-based. The note with it: HCT-116, 72 h.
The test system of assay [5] is MCF7. Briefly: Cytotoxicity against human MCF7 cells after 72 hrs by MTT assay. In kind it is functional, cell-based. The note with it: Homo sapiens, MCF7, 72 h.
Assay [6] deals with PC-3. Briefly: Cytotoxicity against human PC3 cells after 72 hrs by MTT assay. The assay is classed as functional, cell-based. The note with it: Homo sapiens, PC-3, 72 h.
Assay [7] relates to MDA-MB-231. Briefly: Cytotoxicity against human MDA-MB-231 cells after 72 hrs by MTT assay. The assay is classed as functional, cell-based. The note with it: Homo sapiens, MDA-MB-231, 72 h.
Assay [8] deals with KB/VJ300. Nature of the assay: Cytotoxicity against human KB/VJ300 cells after 72 hrs in presence of vincristine by MTT assay. In kind it is functional, cell-based. The following applies: Homo sapiens, KB/VJ300, 72 h.
The subject of assay [9] is A549. Briefly: Cytotoxicity against human A549 cells after 72 hrs by MTT assay. The following applies: A549, 72 h. In kind it is functional, cell-based.
Assay [10] deals with MRC5. Briefly: Cytotoxicity against human MRC5 cells after 72 hrs by MTT assay. The assay is classed as cell-based.
For assay [11], the system named is LNCaP. Nature of the assay: Cytotoxicity against human LNCAP cells after 72 hrs by MTT assay. In kind it is functional, cell-based. The following applies: Homo sapiens, LNCaP, 72 h.

In the case of `CC[C@]12C=CCN3CC[C@]4(C(=C(C(=O)OC)C1)Nc1cc5c(cc14)[C@@H]1[C@H](O5)[C@@H](O)[C@@]4(CC)CC(C(=O)OC)=C5N=C6C(=CC(=O)C(OC)=C6OC)[C@@]56CCN1[C@H]64)[C@@H]32`, the IC50 in assay [1] was found to be 0.4 µM; in assay [2] (Homo sapiens, 72 h), 0.03 µM; in assay [3] it was 4.6 µM; in assay [4], 0.1 µM; in assay [5] it was 0.8 µM; in assay [6] it was 0.3 µM. In addition, the IC50 is 0.5 µM in assay [7]; 4.3 µM in assay [8]; > 10 µM in assay [9]; 5.6 µM in [10] (Homo sapiens, MRC5, 72 h); 2.8 µM in [11].

Take `CC[C@@]12CC[C@@H]3N(C)c4ccc([C@@H]5[C@H]6O[C@H]6[C@@]6(CC)CC(C(=O)OC)=C7Nc8c(cc(O)c(OC)c8OC)[C@@]78CCN5[C@@H]68)cc4[C@@]34CCN(C[C@H]3O[C@H]31)[C@@H]24` [CONOFOLINE]: the IC50 in assay [1] is 8.5 µM; in assay [2] (Homo sapiens, 72 h), > 10 µM; in assay [3], > 10 µM; in assay [4] it was 6.6 µM; in [5], > 10 µM; in [6], 2.3 µM. Also, the IC50 in [7] was 9.9 µM; in assay [9], 8.2 µM; in [11] it was > 10 µM.

Take `CC[C@@]12C=C(C(=O)OC)C3=Nc4c(cc(O)c(OC)c4OC)[C@@]34CCN([C@@H]3c5cc6c(cc5O[C@@H]3[C@H]1O)NC1=C(C(=O)OC)C[C@]3(CC)[C@@H]5O[C@@H]5CN5CC[C@@]16[C@@H]53)[C@@H]24`: the IC50 was 2.2 µM in assay [1]; 1.1 µM in assay [2] (Homo sapiens, 72 h); > 10 µM in assay [3]; 4.3 µM in [4]; 4.8 µM in [5]; 4.7 µM in assay [6]. Moreover, the IC50 in [7] is 3.6 µM; in [8], 4.1 µM; in assay [9], > 10 µM; in assay [11] it was > 10 µM.

`CC[C@@]12CC(C(=O)OC)=C3N=C4C(=CC(=O)C(OC)=C4OC)[C@@]34CCN([C@@H]3c5cc6c(cc5O[C@@H]3[C@H]1O)NC1=C(C(=O)OC)C[C@]3(CC)[C@@H]5O[C@@H]5CN5CC[C@@]16[C@@H]53)[C@H]42`: the IC50 in assay [1] came out at 0.2 µM; in assay [2] (Homo sapiens, 72 h) it was 0.1 µM; in assay [3], 8.6 µM; in assay [4], 0.2 µM; in assay [5] it was 0.3 µM; in [6], 0.7 µM. Further, the IC50 is 0.4 µM in [7], 1.5 µM in assay [8], > 10 µM in assay [9] and > 10 µM in assay [11].

For the compound `CC[C@@]12CC(C(=O)OC)=C3Nc4c(cc(O)c(OC)c4OC)[C@@]34CCN([C@@H]3c5cc6c(cc5O[C@@H]3[C@H]1O)NC1=C(C(=O)OC)C[C@]35CCO[C@H]3CCN3CC[C@@]16[C@@H]35)[C@@H]24`, the IC50 was 0.5 µM in assay [2] (Homo sapiens, 72 h); 1.4 µM in [8]; > 10 µM in assay [9]; 6.2 µM in assay [10] (Homo sapiens, MRC5, 72 h).

`CC[C@@]12CC(C(=O)OC)=C3N=C4C(=CC(=O)C(OC)=C4OC)[C@@]34CCN([C@@H]3c5cc6c(cc5O[C@@H]3[C@H]1O)NC1=C(C(=O)OC)C[C@]3(CC)[C@H](O)[C@@H](O)CN5CC[C@@]16[C@@H]53)[C@H]42`: the IC50 in assay [1] was 2.3 µM; in assay [2] (Homo sapiens, 72 h), 0.2 µM; in [3] it was > 10 µM; in assay [4], 3.1 µM; in assay [5], 3.5 µM; in assay [6] it was > 10 µM. For the same compound, the 50% inhibitory concentration (IC50) was 5.4 µM in assay [7]; > 10 µM in [8]; > 10 µM in assay [9]; > 10 µM in assay [10] (Homo sapiens, MRC5, 72 h); 2.6 µM in assay [11].

Take `CC[C@@]12CC(C(=O)OC)=C3N=C4C(=CC(=O)C(O)=C4OC)[C@@]34CCN([C@@H]3c5cc6c(cc5O[C@@H]3[C@H]1O)NC1=C(C(=O)OC)C[C@]3(CC)[C@@H]5O[C@@H]5CN5CC[C@@]16[C@@H]53)[C@H]42` (stereo in doubt; 7): the IC50 was 0.8 µM in assay [1]; 0.03 µM in assay [2]; 4.2 µM in [3]; 0.5 µM in assay [4]; 0.8 µM in assay [5]; 0.6 µM in assay [6]. For the same compound, the IC50 in assay [7] is 1.3 µM; in assay [8], 3 µM; in assay [9], > 10 µM; in assay [10] (mrc5) it was 1.5 µM; in [11], 1.6 µM.

Regarding `CC[C@@]12CC(C(=O)OC)=C3N=C4C(=CC(=O)C(OC)=C4OC)[C@@]34CCN([C@H](c3ccc5c(c3)[C@@]36CCN7C[C@H]8O[C@H]8[C@@](CC)(CC[C@@H]3N5C)[C@H]76)[C@H]3O[C@H]31)[C@H]42`, the IC50 was 3.4 µM in [1]; 1.1 µM in assay [2] (Homo sapiens, 72 h); 2.7 µM in assay [3]; 2.4 µM in [4]; 8.4 µM in [5]; 4.3 µM in assay [6]. In addition, the IC50 in [7] was 6 µM; in assay [8], 4.4 µM; in assay [9], > 10 µM; in [10] (Homo sapiens, MRC5, 72 h), > 10 µM; in assay [11] it was 3.3 µM.
